The test system of series [1] is Cell membrane. Put plainly: Induction of outer membrane permeabilization in Escherichia coli KCTC 1682 assessed as increase in fluorescence intensity at 2 to 8 ug/ml by NPN staining based analysis. The settings on record: dose 2-8 µg/ml.
In the next series the test system is Erythrocyte. In words: Hemolytic activity in sheep RBC assessed as minimal hemolytic concentration causing 10% hemolysis incubated for 1 hr by ELISA. It is filed as toxicity, cell-based, Ovis aries.
A further series has as its system Enterococcus faecium. Put plainly: Antibacterial activity against vancomycin-resistant Enterococcus faecium ATCC 51559 strain assessed as bacterial growth inhibition measured at 18 to 24 hrs by microdilution assay. The settings on record: time 18-24 hrs. It is filed as functional.
Series [2] relates to Escherichia coli. In words: Antibacterial activity against Escherichia coli KCTC 1682 strain assessed as bacterial growth inhibition measured after 6 hrs in presence of trypsin by radial diffusion assay. It is filed as functional, organism-based.
The test system of series [3] is Escherichia coli. In words: Antibacterial activity against Escherichia coli KCTC 1682 strain assessed as bacterial growth inhibition measured after 6 hrs in presence of chymotrypsin by radial diffusion assay. It counts as functional, organism-based.
The subject of series [4] is Escherichia coli. Put plainly: Antibacterial activity against Escherichia coli KCTC 1682 strain assessed as bacterial growth inhibition measured after 6 hrs in presence of pepsin by radial diffusion assay. It is filed as functional, organism-based.
The test system of series [5] is Escherichia coli. In words: Antibacterial activity against Escherichia coli KCTC 1682 strain assessed as bacterial growth inhibition measured after 6 hrs in presence of proteinase K by radial diffusion assay. It counts as functional, organism-based.
The subject of series [6] is Cell membrane. Put plainly: Induction of cell membrane depolarization in Staphylococcus aureus assessed as increase in fluorescence intensity at 2 times MIC by DiSC3(5) dye based fluorescence assay.
The test system of series [7] is Cell membrane. In words: Induction of cell membrane depolarization in Staphylococcus aureus assessed as fluorescence intensity at 2 to 16 times MIC by DiSC3(5) dye based fluorescence assay. It counts as subcellular.
Series [8] has as its system Cell membrane. In words: Induction of cell membrane depolarization in Staphylococcus aureus assessed as increase in fluorescence intensity at 2 times MIC by SYTOX green staining based analysis.
Series [9] deals with Cell membrane. In words: Induction of inner membrane permeabilization in Escherichia coli ML-35 assessed as increase in […] at 2 times MIC by ONPG staining based analysis.
Series [10] relates to Cell membrane. Put plainly: Induction of cell membrane damage in Escherichia coli KCTC 1682 assessed as increase in fluorescent intensity at 2 times MIC incubated for 30 mins by PI staining based flow cytometry assay (reference value: 9.79 %). It is filed as subcellular.
For series [11], the system named is Staphylococcus aureus. In words: Antibacterial activity against methicillin-resistant Staphylococcus aureus CCARM 3089 strain assessed as bacterial growth inhibition measured at 18 to 24 hrs by microdilution assay. It counts as functional. To be noted: time 18-24 hrs.
Series [12] relates to Staphylococcus aureus. In words: Antibacterial activity against methicillin-resistant Staphylococcus aureus CCARM 3090 strain assessed as bacterial growth inhibition measured at 18 to 24 hrs by microdilution assay. It is filed as functional. The settings on record: time 18-24 hrs.
In series [13] the test system is Staphylococcus aureus. Put plainly: Antibacterial activity against methicillin-resistant Staphylococcus aureus CCARM 3095 strain assessed as bacterial growth inhibition measured at 18 to 24 hrs by microdilution assay. It is filed as functional. To be noted: time 18-24 hrs.
The test system of series [14] is Pseudomonas aeruginosa. In words: Antibacterial activity against multidrug-resistant Pseudomonas aeruginosa CCARM 2095 strain assessed as bacterial growth inhibition measured at 18 to 24 hrs by microdilution assay. It is filed as functional. To be noted: time 18-24 hrs.
Series [15] deals with Pseudomonas aeruginosa. In words: Antibacterial activity against multidrug-resistant Pseudomonas aeruginosa CCARM 2109 strain assessed as bacterial growth inhibition measured at 18 to 24 hrs by microdilution assay. It counts as functional. The settings on record: time 18-24 hrs.
For series [16], the system named is Pseudomonas aeruginosa. Put plainly: Antibacterial activity against multidrug-resistant Pseudomonas aeruginosa CCARM 2095 strain assessed as bacterial growth inhibition by checkerboard assay. It counts as functional.
The subject of series [17] is Pseudomonas aeruginosa. In words: Synergistic antibacterial activity against multidrug-resistant Pseudomonas aeruginosa CCARM 2095 strain assessed as bacterial growth inhibition by checkerboard assay. It counts as functional.
Series [18] deals with Pseudomonas aeruginosa. In words: Additive antibacterial activity against multidrug-resistant Pseudomonas aeruginosa CCARM 2095 strain assessed as bacterial growth inhibition by checkerboard assay. It counts as functional.
Series [19] concerns Pseudomonas aeruginosa. Put plainly: Bactericidal activity against multidrug-resistant Pseudomonas aeruginosa CCARM 2095 measured after 24 hrs by time-kill kinetics assay. It is filed as functional, organism-based.
Series [20] concerns Pseudomonas aeruginosa. In words: Bacteriostatic activity against multidrug-resistant Pseudomonas aeruginosa CCARM 2095 measured after 24 hrs by time-kill kinetics assay. It is filed as functional, organism-based.

Converted amounts (≈) assume the structure as drawn. The source made the active and inactive calls. No cut-off for these calls is given here. Bounds are passed on as bounds.

With `CC[C@H](C)[C@H](NC(=O)CN)C(=O)NCC(=O)N[C@@H](C)C(=O)N[C@H](C(=O)N[C@@H](CC(C)C)C(=O)N[C@@H](CCCCN)C(=O)N[C@H](C(=O)N[C@@H](CC(C)C)C(=O)N[C@H](C(=O)N[C@H](C(=O)NCC(=O)N[C@@H](CC(C)C)C(=O)N1CCC[C@H]1C(=O)N[C@@H](C)C(=O)N[C@@H](CC(C)C)C(=O)N[C@H](C(=O)N[C@@H](CO)C(=O)N[C@@H](Cc1c[nH]c2ccccc12)C(=O)N[C@H](C(=O)N[C@@H](CCCCN)C(=O)N[C@@H](CCCNC(=N)N)C(=O)N[C@@H](CCCCN)C(=O)N[C@@H](CCCNC(=N)N)C(=O)N[C@@H](CCC(N)=O)C(=O)N[C@@H](CCC(N)=O)C(N)=O)[C@@H](C)CC)[C@@H](C)CC)[C@@H](C)O)[C@@H](C)O)C(C)C)C(C)C` [MELITTIN], the result with Cell membrane [1], in the series with Cell membrane [6], with Cell membrane [8] and with Cell membrane [9] was Active. Besides, the MHC with Erythrocyte is 3.2 µM. Also, the MIC in the series with Enterococcus faecium amounted to 0.0056 mM (≈ 15.9 µg/mL). The result with Escherichia coli [2], in the series with Escherichia coli [3], in the series with Escherichia coli [4], in the series on Escherichia coli [5] and in the series on Cell membrane [7] was inactive. Also, the Flu intensity in the series on Cell membrane [10] was determined as 64.2%.

`O=C(N[C@H](CO)[C@H](O)c1ccc([N+](=O)[O-])cc1)C(Cl)Cl` [CHLORAMPHENICOL]: the MIC was 3.16 mM (≈ 1020 µg/mL) in the series on Staphylococcus aureus [11]; greater than 6.33 mM in the series on Staphylococcus aureus [12]; greater than 6.33 mM with Staphylococcus aureus [13]; 6.33 mM (≈ 2040 µg/mL) in the series on Pseudomonas aeruginosa [14]; greater than 6.33 mM with Pseudomonas aeruginosa [15]; 1.58 mM (≈ 511 µg/mL) in the series with Enterococcus faecium. The MIC in the series with Pseudomonas aeruginosa [16], in the series on Pseudomonas aeruginosa [17] and in the series with Pseudomonas aeruginosa [18] was 1020 mg/L each time. Also, the result with Pseudomonas aeruginosa [19] and in the series with Pseudomonas aeruginosa [20] was inactive.

(Values after ChEMBL document CHEMBL5331051, “Cationic, amphipathic small molecules based on a triazine-piperazine-triazine scaffold as a new class of antimicrobial agents” (Eur J Med Chem, 2022).)
